pIC50: −log10 of the molar value.
Tests used:
human p38α = human p38α (Homo sapiens (Human), UniProt Q16539); assay: Purified and activated recombinant human p38α HTRF assay; type: biochemical; conditions: 50 μM ATP, read-out: p38a IC50
Procedure: Purified and Activated Recombinant Human p38α Assay
Kinase reaction buffer for p38α HTRF assays consists of 50 mM Tris-pH 7.5, 5 mM MgCl2, 0.1 mg/mL BSA, 100 μM Na3VO4 and 0.5 mM DTT.
HTRF detection buffer contains 100 mM HEPES-pH 7.5, 100 mM NaCl, 0.1% BSA, 0.05% Tween-20, and 10 mM EDTA.
Serial Dilution of Compounds:
Compounds were dissolved in 100% DMSO and serially diluted (3 fold, 10 point) in a polypropylene 96-well microtiter plate (drug plate). The final starting concentration of compounds in the p38α enzymatic assays was 1 μM. Columns 6 and 12 (HI controls and LO controls respectively) in the drug plate were reserved as controls and contained only DMSO.
The p38α kinase reactions were carried out in a polypropylene 96-well black round bottom assay plate in total volume of 30 μL kinase reaction buffer. Appropriate concentration of purified and activated enzyme (recombinant human) was mixed with indicated concentration of ATP and 100 nM GST-ATF2-Avitag, in the presence or absence (HI control) of Compound. See table below for actual concentrations. In the absence of substrate, the background was measured as LO control. The reaction was allowed to incubate for 1 hour at RT.
Assay Reagent Concentrations:
The final reagent concentrations were 1 nM p38α and 50 μM ATP.
After 60 minutes incubation at room temperature, the assay plate was read in a Discovery Plate Reader. The wells were excited with coherent 320 nm light and the ratio of delayed ([…] post excitation) emissions at […] (native europium fluorescence) and 665 nm (europium fluorescence transferred to allophycocyanin—an index of substrate phosphorylation) was determined (Park et al, 1999).
The proportion of substrate phosphorylated in the kinase reaction in the presence of compound compared with that phosphorylated in the presence of DMSO vehicle alone (HI control) was calculated using the formula: % control (POC)=(compound−average LO)/(average HI−average LO)*100. Data (consisting of POC and inhibitor concentration in μM) was fitted to a 4-parameter equation (y=A+((B−A)/(1+((x/C)^D))), where A is the minimum y (POC) value, B is the maximum y (POC), C is the x (compound concentration) at the point of inflection and D is the slope factor, using a Levenburg-Marquardt non-linear regression algorithm.
The inhibition constant (Ki) of the inhibitor was estimated from the IC50 (compound concentration at the point of inflection C) using the Cheng-Prussof equation: Ki=IC50/(1+S/Km), where S is the ATP substrate concentration, and Km is the Michaelis constant for ATP as determined experimentally. All results were expressed as the mean±the standard error of the mean. Data acquisition and non-linear regression algorithms were performed using Activity Base v5.2 and XL-fit software v4.1 respectively. All data was archived using Activity Base v5.2 software.

[1] = test system: TNF-α induced IL-8 in human whole blood; assay: Inhibition of TNF-α induced IL-8 in 50% human whole blood; type: cell-based; conditions: 1 nM TNF-α, secreted IL-8, read-out: WB TNF/IL8 IC50
Procedure: Inhibition of TNF-α Induced IL-8 in 50% Human Whole Blood
Test compounds were evaluated in vitro for the ability to inhibit the production of secreted IL-8 by whole blood activated with TNF-α. Fresh human whole blood was obtained from healthy, non-medicated volunteers in sodium heparin tubes.
Compound Dilution—Assay Procedure
Test compounds are serially diluted 1:3 in DMSO and then diluted 1:250 into R10 (RPMI 1640, 10% human serum AB, 1× pen/strep/glutamine) to the 4× working concentration to be used in the assay. 100 ul heparinized whole blood is plated into wells of 96 well flat bottom plates. 50 ul of either 4× compound or DMSO control (Final DMSO concentration is 0.1%) are added to the appropriate wells. Plates are incubated for 1 hour at 37 degrees Celsius. 50 ul of 4×TNF-α (4 nM TNF-α, for a final concentration of 1 nM) or control (media alone) is added to the appropriate wells (Total volume=200 ul). Plates are incubated overnight (16-18 hours). 100 ul of supernatant is collected and stored in 96-well round bottom polypropylene plates at −80 degrees Celsius or assayed immediately for IL-8.
Cytokines are measured on antibody (Ab) sandwich ECL based 96-well detection plates. 20 ul of supernatant are added to plate and plate is sealed and shaken at RT for 1 hour. 130 ul of detection Ab cocktail is added and plates are sealed and shaken for 1 hour in the dark at RT. Plates are read on MSD Sector HTS instrument. Data are analyzed and IC50 values generated using Activity Base and Xl-fit programs.

human p38α, sequence (Q16539 whole entry): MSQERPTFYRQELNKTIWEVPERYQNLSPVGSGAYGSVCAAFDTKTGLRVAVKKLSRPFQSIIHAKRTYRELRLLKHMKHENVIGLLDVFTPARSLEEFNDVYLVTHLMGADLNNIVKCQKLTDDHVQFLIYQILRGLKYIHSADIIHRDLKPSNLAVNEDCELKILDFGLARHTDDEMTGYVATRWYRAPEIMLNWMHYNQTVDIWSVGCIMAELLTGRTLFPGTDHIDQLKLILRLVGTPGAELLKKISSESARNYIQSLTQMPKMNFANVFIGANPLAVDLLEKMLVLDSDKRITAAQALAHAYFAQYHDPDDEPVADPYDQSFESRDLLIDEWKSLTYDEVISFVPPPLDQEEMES

Compound	pIC50 (human p38α)	pIC50 [1]
Cc1ccc(C(N)=O)cc1-c1nncc2nc(Oc3ccc(F)cc3F)ccc12 [Example 5, 3-(2-(2,4-difluorophenoxy)pyrido[2,3-d]pyridazin-5-yl)-4-methylbenzamide]	9.52	9.00
Cc1ccccc1-c1nncc2nc(Nc3ccc(F)cc3F)ccc12 [Example 6, N-(2,4-difluorophenyl)-5-(2-methylphenyl)pyrido[2,3-d]pyridazin-2-amine]	9.30	8.96
Cc1cc(S(C)(=O)=O)ccc1-c1nncc2nc(Nc3ccc(F)cc3F)ccc12 [Example 7, N-(2,4-difluorophenyl)-5-(2-methyl-4-(methylsulfonyl)phenyl)pyrido[2,3-d]pyridazin-2-amine]	9.30	8.59
Cc1ncccc1-c1nncc2nc(Nc3ccc(F)cc3F)ccc12 [Example 8, N-(2,4-difluorophenyl)-5-(2-methyl-3-pyridinyl)pyrido[2,3-d]pyridazin-2-amine]	8.92	8.59
Cc1cc(S(C)(=O)=O)ccc1-c1nncc2nc(Nc3ccc(F)cc3)ccc12 [Example 9, N-(4-fluorophenyl)-5-(2-methyl-4-(methylsulfonyl)phenyl)pyrido[2,3-d]pyridazin-2-amine]	9.05	8.05
Fc1ccc(Nc2ccc3c(-c4ccc(F)cc4F)nncc3n2)c(F)c1 [Example 10, N,5-bis(2,4-difluorophenyl)pyrido[2,3-d]pyridazin-2-amine]	9.52	8.68
Cc1noc(C)c1-c1nncc2nc(Nc3ccc(F)cc3F)ccc12 [Example 15, N-(2,4-difluorophenyl)-5-(3,5-dimethyl-4-isoxazolyl)pyrido[2,3-d]pyridazin-2-amine]	8.15	8.00
Cc1ccccc1-c1nncc2nc(Oc3ccc(F)cc3F)ccc12 [Example 16, 2-(2,4-difluorophenoxy)-5-(2-methylphenyl)pyrido[2,3-d]pyridazine]	9.70	8.64
Cc1cc(S(C)(=O)=O)ccc1-c1nncc2nc(Oc3ccc(F)cc3F)ccc12 [Example 17, 2-(2,4-difluorophenoxy)-5-(2-methyl-4-(methylsulfonyl)phenyl)pyrido[2,3-d]pyridazine]	9.15	7.92
Fc1ccc(Oc2ccc3c(-c4cn[nH]c4)nncc3n2)c(F)c1 [Example 18, 2-(2,4-difluorophenoxy)-5-(1H-pyrazol-4-yl)pyrido[2,3-d]pyridazine]	8.29	7.62
Cc1ccccc1-c1nncc2nc(Oc3ccc(F)cc3)ccc12 [Example 19, 2-(4-fluorophenoxy)-5-(2-methylphenyl)pyrido[2,3-d]pyridazine]	9.05	8.23
Cc1cc(F)ccc1Oc1ccc2c(-c3cc(C(N)=O)ccc3C)nncc2n1 [Example 23, 3-(2-(4-fluoro-2-methylphenoxy)pyrido[2,3-d]pyridazin-5-yl)-4-methylbenzamide]	6.38	5.99

Further compounds by rising pIC50 (human p38α), results first:

pIC50 (human p38α)	pIC50 [1]	Compound
6.77	6.21	Cc1cc(F)ccc1Oc1ccc2c(-c3ccccc3C)nncc2n1 [Example 22, 2-(4-fluoro-2-methylphenoxy)-5-(2-methylphenyl)pyrido[2,3-d]pyridazine]
7.35	7.10	O=C(c1cccc(-c2nncc3nc(Nc4ccc(F)cc4F)ccc23)c1)N1CCOCC1 [Example 11, N-(2,4-difluorophenyl)-5-(3-(4-morpholinylcarbonyl)phenyl)pyrido[2,3-d]pyridazin-2-amine]
8.19	7.37	Cc1noc(C)c1-c1nncc2nc(Oc3ccc(F)cc3F)ccc12 [Example 21, 2-(2,4-difluorophenoxy)-5-(3,5-dimethyl-4-isoxazolyl)pyrido[2,3-d]pyridazine]
8.25	7.89	Cn1cc(-c2nncc3nc(Nc4ccc(F)cc4F)ccc23)cn1 [Example 12, N-(2,4-difluorophenyl)-5-(1-methyl-1H-pyrazol-4-yl)pyrido[2,3-d]pyridazin-2-amine]
8.40	8.12	Fc1ccc(Nc2ccc3c(N4CCOCC4)nncc3n2)c(F)c1 [Example 3, N-(2,4-difluorophenyl)-5-(4-morpholinyl)pyrido[2,3-d]pyridazin-2-amine]
8.46	8.64	Fc1ccc(Nc2ccc3c(-c4cn[nH]c4)nncc3n2)c(F)c1 [Example 13, N-(2,4-difluorophenyl)-5-(1H-pyrazol-4-yl)pyrido[2,3-d]pyridazin-2-amine]
8.80	8.74	N-(2,4-difluorophenyl)-5-(3,5-dimethyl-1H-pyrazol-4-yl)pyrido[2,3-d]pyridazin-2-amine [Example 2]
8.92	8.51	Cc1ccc(C(N)=O)cc1-c1nncc2nc(Oc3ccc(F)cc3)ccc12 [Example 20, 3-(2-(4-fluorophenoxy)pyrido[2,3-d]pyridazin-5-yl)-4-methylbenzamide]
8.96	8.57	Cc1n[nH]cc1-c1nncc2nc(Nc3ccc(F)cc3F)ccc12 [Example 14, N-(2,4-difluorophenyl)-5-(3-methyl-1H-pyrazol-4-yl)pyrido[2,3-d]pyridazin-2-amine]

From US8772481B2, “Aza- and diaza-phthalazine compounds as P38 map kinase modulators and methods of use thereof” (Amgen Inc., priority 2008, dated 2014)
